Measurements published in patent US9045429B2, “Substituted phenoxypyridines” (Bayer Intellectual Property GmbH, priority 2010, dated 2015).
pIC50: −log10 of the molar value.

Experiments:
A375 cells = experiment: A375 Crystal Violet (CV) Proliferation Assay [Assay 5]; assay type: cell-based; settings: A-375, 96 h; A375 human melanoma cells (BRAF V600E), crystal violet staining, 4 days incubation
Method: Assay 5: A375 Crystal Violet (CV) Proliferation Assay:
Cell proliferation for A375 cells [human melanoma cell line, expressing mutant BRAF V600E] was measured by crystal violet (CV) staining: Cultivated human A375 cells were plated out in a density of 1500 cells/measurement point in 200 μl of growth medium (DMEM/HAMS F12 with 10% FBS and 2 mM Glutamine) in a 96-well multititer plate. After 24 hours, the cells from a plate (zero plate) were stained with crystal violet (see below), while the medium in the other plates was replaced by fresh culture medium (200 μl) to which the test substances had been added in various concentrations (0 μM, and in the range 0.3 nM-30 μM; the final concentration of the solvent dimethyl sulphoxide was 0.5%). The cells were incubated in the presence of the test substances for 4 days. The cell proliferation was determined by staining the cells with crystal violet: the cells were fixed by adding 20 μl/measurement point of an 11% glutaraldehyde solution at room temperature for 15 min. After the fixed cells had been washed three times with water, the plates were dried at room temperature. The cells were stained by adding 100 μl/measurement point of a 0.1% crystal violet solution (pH adjusted to pH 3 by adding acetic acid). After the stained cells had been washed three times with water, the plates were dried at room temperature. The dye was dissolved by adding 100 μl/measurement point of a 10% acetic acid solution, and the extinction was determined by photometry at a wavelength of 595 nm. The percentage change in cell growth was calculated by normalizing the measurements to the extinctions of the zero point plate (=0%) and the extinction of the untreated (0 μM) cells (=100%). The IC50 values were determined by means of a 4-parameter fit using the company's own software.

HCT116 cells = experiment: HCT116 Cell Titer Glo (CTG) Proliferation Assay [Assay 1]; assay type: cell-based; settings: HCT-116, HCT116 human colorectal cells, 72 hours incubation
Excerpt: Cell Titer Glo Proliferation Assay
The adherent tumor cell proliferation assay used to test the compounds of the present invention involves a readout called Cell Titre-Glo developed by Promega (Cunningham, BA “A Growing Issue: Cell Proliferation Assays. Modern kits ease quantification of cell growth” The Scientist 2001, 15(13), 26, and Crouch, S P et al., “The use of ATP bioluminescence as a measure of cell proliferation and cytotoxicity” Journal of Immunological Methods 1993, 160, 8 1-88).
Assay 1: HCT116 Cell Titer Glo (CTG) Proliferation Assay:
(§1) HCT116 cells [human colorectal cell line, expressing mutant […]] were plated at a density of 3000 cells/well in 96 well black-clear bottom tissue culture plates (Costar 3603 black/clear bottom) in 100 μl/well DMEM medium (DMEM/Ham's F12) with 10% Fetal Bovine Serum (FBS) and stable Glutamine incubated at 37° C. Sister wells were plated in separate plate for time zero determination. All plates were incubated overnight at 37° C. Take down time zero plate: 100 μl/well CTG solution (Promega Cell Titer Glo solution) were added to time zero wells in sister plate; the plates were mixed for 2 min on orbital shaker to ensure cell lysis, incubated for 10 minutes, luminescence was read on VICTOR 3 (Perkin Elmer). Twenty-four hours after cell seeding, test compounds were diluted in 50 μl medium and were added at a final concentration range from as high 10 μM to as low 300 pM depending on the activities of the tested compounds in serial dilutions at a final DMSO concentration of 0.4%. Cells were incubated for 72 hours at 37° C. after addition of the test compound. Then, using a Promega Cell Titer Glo Luminescent® assay kit, 100 μl microliter lysis buffer containing of the enzyme luciferase and its substrate, luciferin mixture, were added to each well and incubated for 10 min at room temperature in the dark to stabilize luminescence signal. The samples were read on VICTOR 3 (Perkin Elmer) using Luminescence protocol. The percentage change in cell growth was calculated by normalizing the measurements to the extinctions of the zero point plate (=0%) and the extinction of the untreated (0 μM) cells (=100%). The IC50 values were determined by means of a 4-parameter fit using the company's own software.

A549 cells = experiment: A549 Cell Titer Glo (CTG) Proliferation Assay [Assay 2]; assay type: cell-based; settings: A549 human non small cell lung cancer cells (K-Ras G12S), 72 hours incubation
Method: as §1
Assay 2: A549 Cell Titer Glo (CTG) Proliferation Assay:
A549 cells [human non small cell lung cancer cell line, expressing mutant K-Ras G12S] were seeded at a density of 2000 cells/well in 96 well black-clear bottom tissue culture plates (Costar 3603 black/clear bottom) in 100 μl/well DMEM medium (DMEM/Ham's F12) with 10% Fetal Bovine Serum (FBS) and stable Glutamine incubated at 37° C. Cell Titer Glo proliferation assays for A549 cells were performed with the same protocol as described afore for HCT116 cells.

MEK1/2 = MEK1/2 inhibitor, literature [17]; cited from earlier work
colon cancer = settings: oral treatment, mouse models, literature [18]; cited from earlier work

pIC50 (A375 cells) | pIC50 (HCT116 cells) | pIC50 (A549 cells) | SMILES | IC50 (MEK1/2) | colon cancer growth in vivo (colon cancer)
6.93 | – | – | COc1cncc(Nc2ccc(I)cc2F)c1C(N)=O [Example 15, 3-[(2-fluoro-4-iodophenyl)amino]-5-methoxyisonicotinamide] | – | –
8.06 | 6.36 | 6.05 | CCC(=O)Nc1cccc(Oc2cncc(Nc3ccc(I)cc3F)c2C(N)=O)c1 [Example 9, 3-[(2-fluoro-4-iodophenyl)amino]-5-[3-(propionylamino)phenoxy]isonicotinamide] | – | –
8.90 | 7.47 | 7.30 | C#Cc1ccc(Nc2cncc(Oc3cccc(NS(=O)(=O)CC)c3)c2C(N)=O)c(F)c1 [Example 14, 3-{3-[(ethylsulfonyl)amino]phenoxy}-5-[(4-ethynyl-2-fluorophenyl)amino]isonicotinamide] | – | –
7.48 | – | – | CC(C)(O)C(O)CCOc1cncc(Nc2ccc(I)cc2F)c1C(N)=O (stereo not shown) [Example 12, 3-[(3,4-dihydroxy-4-methylpentyl)oxy]-5-[(2-fluoro-4-iodophenyl)amino]isonicotinamide] | – | –
7.67 | 5.95 | 5.78 | CC(C)C(=O)Nc1cccc(Oc2cncc(Nc3ccc(I)cc3F)c2C(N)=O)c1 [Example 10, 3-[(2-fluoro-4-iodophenyl)amino]-5-[3-(isobutyrylamino)phenoxy]isonicotinamide] | – | –

The remaining lines, values behind:

SMILES | pIC50 (A375 cells) | pIC50 (HCT116 cells) | pIC50 (A549 cells) | IC50 (MEK1/2) | colon cancer growth in vivo (colon cancer)
NC(=O)c1c(Nc2ccc(I)cc2F)cncc1Oc1cccc(NS(=O)(=O)C2CC2)c1 [Example 7, 3-{3-[(cyclopropylsulfonyl)amino]phenoxy}-5-[(2-fluoro-4-iodophenyl)amino]isonicotinamide] | 7.82 | 8.01 | 7.77 | – | –
NC(=O)c1c(Nc2ccc(I)cc2F)cncc1Oc1cccc(N)c1 [Example 3, 3-(3-aminophenoxy)-5-[(2-fluoro-4-iodophenyl)amino]isonicotinamide] | 9.17 | 6.67 | 6.42 | – | –
CC(=O)Nc1cccc(Oc2cncc(Nc3ccc(I)cc3F)c2C(N)=O)c1 [Example 8, 3-(3-acetamidophenoxy)-5-[(2-fluoro-4-iodophenyl)amino]isonicotinamide] | 8.31 | 6.71 | 6.47 | – | –
CS(=O)(=O)Nc1cccc(Oc2cncc(Nc3ccc(I)cc3F)c2C(N)=O)c1 [Example 5, 3-[(2-fluoro-4-iodophenyl)amino]-5-{3-[(methylsulfonyl)amino]phenoxy}isonicotinamide] | 9.11 | 7.73 | 7.64 | – | –
O=C(NOCC1CC1)c1ccc(F)c(F)c1Nc1ccc(I)cc1Cl [PD184352] | – | – | – | low nanomolar range | inhibit colon cancer growth
CC(C)S(=O)(=O)Nc1cccc(Oc2cncc(Nc3ccc(I)cc3F)c2C(N)=O)c1 [Example 4, 3-[(2-fluoro-4-iodophenyl)amino]-5-{3[(isopropylsulfonyl)amino]phenoxy}isonicotinamide] | 9.39 | 7.95 | 7.84 | – | –
NC(=O)c1c(Nc2ccc(I)cc2F)cncc1Oc1ccc2oc(=O)[nH]c2c1 [Example 1, 3-[(2-fluoro-4-iodophenyl)amino]-5-[(2-oxo-2,3-dihydro-1,3-benzoxazol-5-yl)oxy]isonicotinamide] | 8.64 | 7.35 | 7.23 | – | –
CCS(=O)(=O)Nc1cccc(Oc2cncc(Nc3ccc(I)cc3F)c2C(N)=O)c1 [Example 6, 3-{3-[(ethylsulfonyl)amino]phenoxy}-5-[(2-fluoro-4-iodophenyl)amino]isonicotinamide] | 7.82 | 7.96 | 7.83 | – | –
